Data on 6 molecules can be found in US20250230193A1, “CYCLIC COMPOUND HAVING SELECTIVE KRAS INHIBITORY EFFECT ON HRAS AND NRAS” (CHUGAI SEIYAKU KABUSHIKI KAISHA, priority 2022, published 2025).

Assay [1] addresses GDP-bound HRAS wild-type protein (Homo sapiens, UniProt P01112). In words: Binding to HRAS by surface plasmon resonance (SPR), Single Cycle Kinetics. To be noted: SPR, GDP-bound HRAS wild-type vs GDP-bound KRAS wild-type. A general note: SPR reads the build-up and loss of mass on a sensor chip optically.
In assay [2] the target is GDP-bound NRAS wild-type protein (Homo sapiens, UniProt P01111). In words: Binding to NRAS by surface plasmon resonance (SPR), Single Cycle Kinetics. To be noted: SPR, GDP-bound NRAS wild-type vs GDP-bound KRAS wild-type.

Structures are written as SMILES.

Chain of GDP-bound NRAS wild-type protein (P01111 whole entry): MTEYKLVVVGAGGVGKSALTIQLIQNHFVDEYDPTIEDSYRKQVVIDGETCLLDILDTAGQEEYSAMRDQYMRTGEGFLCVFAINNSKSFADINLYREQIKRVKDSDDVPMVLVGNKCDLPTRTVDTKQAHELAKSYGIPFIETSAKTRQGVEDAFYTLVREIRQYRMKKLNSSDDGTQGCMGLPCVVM
Chain of GDP-bound HRAS wild-type protein (P01112 whole entry): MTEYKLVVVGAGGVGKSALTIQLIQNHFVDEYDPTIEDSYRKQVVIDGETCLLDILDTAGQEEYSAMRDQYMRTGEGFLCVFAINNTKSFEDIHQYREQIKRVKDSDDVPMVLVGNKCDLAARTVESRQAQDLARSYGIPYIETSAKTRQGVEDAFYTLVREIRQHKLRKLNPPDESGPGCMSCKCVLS

For the molecule `CCCOC[C@H]1C(=O)N[C@@H]([C@@H](C)CC)C(=O)N2CCC[C@H]2C(=O)N(C)[C@H]2C/C=C\CCN(C2=O)[C@@H](Cc2ccc(C)cc2)C(=O)N(C)CC(=O)N[C@@H](CCc2ccc(C(F)(F)F)c(OC)c2)C(=O)N2C[C@H](OCC)C[C@H]2C(=O)N(C)C2(CCC2)C(=O)N(C)[C@@H](C(CC)CC)C(=O)N(C)[C@H](C(=O)N(C)C)CC(=O)N1C` [PP2331], in assay [1], the “HRAS/KRAS (ratio of KD value with respect to HRAS to KD value with respect to KRAS)” value was “A (a compound having 10 or more and less than 20 is denoted as A)”. Also, the “NRAS/KRAS (ratio of KD value with respect to NRAS to KD value with respect to KRAS)” value in assay [2] is listed as “AA (a compound having 20 or more is denoted as AA)”.

Take `CCC[C@H]1C(=O)N[C@@H]([C@@H](C)CC)C(=O)N2CCC[C@H]2C(=O)N(C)[C@H]2C/C=C\CCN(C2=O)[C@@H](Cc2ccc(C)cc2)C(=O)N(C)CC(=O)N[C@@H](CCc2ccc(C(F)(F)F)c(OC)c2)C(=O)N2C[C@H](OCC)C[C@H]2C(=O)N(C)C2(CCC2)C(=O)N(C)[C@@H](C2CCCC2)C(=O)N(C)[C@H](C(=O)N(C)C)CC(=O)N1C` [PP2332]: in assay [1], the “HRAS/KRAS (ratio of KD value with respect to HRAS to KD value with respect to KRAS)” value was “B (a compound having 3 or more and less than 10 is denoted as B)”. The “NRAS/KRAS (ratio of KD value with respect to NRAS to KD value with respect to KRAS)” value in assay [2] was “A (a compound having 10 or more and less than 20 is denoted as A)”.

On to `CCC[C@H]1C(=O)N[C@@H]([C@@H](C)CC)C(=O)N(C)CC(=O)N(C)[C@H]2C/C=C\CCN(C2=O)[C@@H](CC2CCCCC2)C(=O)N(C)CC(=O)N[C@@H](CCc2ccc(C(F)(F)F)c(OC)c2)C(=O)N2C[C@H](OCC)C[C@H]2C(=O)N(C)C2(CCC2)C(=O)N(C)[C@@H](C(CC)CC)C(=O)N(C)[C@H](C(=O)N(C)C)CC(=O)N1C` [PP2333], for which the “HRAS/KRAS (ratio of KD value with respect to HRAS to KD value with respect to KRAS)” value in assay [1] is “A (a compound having 10 or more and less than 20 is denoted as A)”. In assay [2], the “NRAS/KRAS (ratio of KD value with respect to NRAS to KD value with respect to KRAS)” value is “A (a compound having 10 or more and less than 20 is denoted as A)”.

Turning to `CCCOC[C@H]1C(=O)N[C@@H]([C@@H](C)CC)C(=O)N2CCC[C@H]2C(=O)N(C)[C@H]2C/C=C\CCN(C2=O)[C@@H](Cc2ccc(C)cc2)C(=O)N(C)CC(=O)N[C@@H](CCc2ccc(C(F)(F)F)c(OC)c2)C(=O)N2C[C@H](OCC)C[C@H]2C(=O)N(C)C2(CCC2)C(=O)N(C)[C@@H](C2CCCC2)C(=O)N(C)[C@H](C(=O)N(C)C)CC(=O)N1C` [PP2334], the “HRAS/KRAS (ratio of KD value with respect to HRAS to KD value with respect to KRAS)” value in assay [1] was “B (a compound having 3 or more and less than 10 is denoted as B)”. Also, the “NRAS/KRAS (ratio of KD value with respect to NRAS to KD value with respect to KRAS)” value in assay [2] is “A (a compound having 10 or more and less than 20 is denoted as A)”.

As for `CCO[C@@H]1C[C@H]2C(=O)N(C)C3(CCC3)C(=O)N(C)[C@@H](C(CC)CC)C(=O)N(C)[C@H](C(=O)N(C)C)CC(=O)N(C)[C@@H](COC)C(=O)N[C@@H]([C@@H](C)CC)C(=O)N(C)CC(=O)N(C)[C@H]3C/C=C\CCN(C3=O)[C@@H](CC3CCCCC3)C(=O)N(C)CC(=O)N[C@@H](CCc3ccc(C(F)(F)F)c(OC)c3)C(=O)N2C1` [PP2335], in assay [1], the “HRAS/KRAS (ratio of KD value with respect to HRAS to KD value with respect to KRAS)” value was “A (a compound having 10 or more and less than 20 is denoted as A)”. For the same molecule, in assay [2], the “NRAS/KRAS (ratio of KD value with respect to NRAS to KD value with respect to KRAS)” value is “A (a compound having 10 or more and less than 20 is denoted as A)”.

Take `CCC[C@H]1C(=O)N[C@@H]([C@@H](C)CC)C(=O)N(C)CC(=O)N(C)[C@H]2C/C=C\CCN(C2=O)[C@@H](CC2CCCCC2)C(=O)N(C)CC(=O)N[C@@H](CCc2ccc(C(F)(F)F)c(OC)c2)C(=O)N2C[C@H](OCC)C[C@H]2C(=O)N(C)C2(CCC2)C(=O)N(C)[C@@H](C2CCCC2)C(=O)N(C)[C@H](C(=O)N(C)C)CC(=O)N1C` [PP2336]: the “HRAS/KRAS (ratio of KD value with respect to HRAS to KD value with respect to KRAS)” value in assay [1] was “A (a compound having 10 or more and less than 20 is denoted as A)”. The “NRAS/KRAS (ratio of KD value with respect to NRAS to KD value with respect to KRAS)” value in assay [2] was “A (a compound having 10 or more and less than 20 is denoted as A)”.
